According to PubChem BioAssay (NCI):
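Method: 48-hour compound exposure of cells in 96-well plates, five concentrations, linear interpolation of endpoints. Here, GI50 denotes the concentration required for 50% inhibition of growth. The concentration for full growth arrest is given as TGI.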

Key:
Assay in all cases: inhibition of tumour cell growth, NCI panel, 48 h
NCI-H23 lung = test system: NCI-H23 lung
SK-MEL-28 melanoma = test system: SK-MEL-28 melanoma
TK-10 renal = test system: TK-10 renal
ACHN renal = test system: ACHN renal
SN12C renal = test system: SN12C renal
HOP-92 NSCLC = test system: HOP-92 NSCLC
SW-620 colon = test system: SW-620 colon
HT29 colon = test system: HT29 colon
DU-145 prostate = test system: DU-145 prostate
HS 578T breast = test system: HS 578T breast

SMILES | TGI (NCI-H23 lung) [µM] | TGI (SK-MEL-28 melanoma) [µM] | TGI (TK-10 renal) [µM] | TGI (ACHN renal) [µM] | TGI (SN12C renal) [µM] | TGI (HOP-92 NSCLC) [µM] | TGI (SW-620 colon) [µM] | TGI (HT29 colon) [µM] | GI50 (NCI-H23 lung) [µM] | GI50 (SK-MEL-28 melanoma) [µM] | GI50 (TK-10 renal) [µM] | GI50 (ACHN renal) [µM] | GI50 (SN12C renal) [µM] | GI50 (SW-620 colon) [µM] | GI50 (DU-145 prostate) [µM] | TGI (DU-145 prostate) [µM] | GI50 (HS 578T breast) [µM] | TGI (HS 578T breast) [µM] | GI50 (HT29 colon) [µM]
O=C1C2C3C=CC(C2C(=O)N1CO)C1C2C(=O)N(CO)C(=O)C2C31 (stereo unspecified) | > 100 | > 100 | > 100 | > 66.6 | > 100 | > 100 | > 66.7 | > 100 | – | – | – | – | – | – | – | – | – | – | –
Cc1nc2ccccc2c(=O)n1/N=C(\N=Nc1ccccc1Cl)c1ccccc1Cl | > 100 | > 100 | > 100 | > 100 | > 100 | 43.7 | > 100 | > 100 | – | – | – | – | – | – | – | – | – | – | –
CN1CCOC(C(NC(=O)c2ccccc2)c2ccccc2)C1=O (stereo unspecified) | > 100 | > 100 | > 100 | > 100 | > 100 | > 100 | > 100 | > 100 | – | – | – | – | – | – | – | – | – | – | –
[O]=[V]([OH])([OH])[OH] | > 100 | > 100 | > 100 | > 100 | > 100 | – | > 100 | > 100 | > 100 | > 100 | > 100 | > 100 | > 100 | > 100 | > 100 | > 100 | > 100 | > 100 | > 100
CC(=O)OCC(=O)[C@@]1(O)CC[C@H]2[C@@H]3C[C@H](C)C4=CC(=O)C=C[C@]4(C)[C@@]3(F)[C@@H](O)C[C@@]21C | > 100 | > 100 | > 100 | > 100 | – | > 100 | > 100 | > 100 | – | – | – | – | – | – | – | – | – | – | –
CC(=O)Nc1ccc(C2CC(c3ccc([N+](=O)[O-])cc3)=Nc3ccccc3S2=O)cc1 (stereo unspecified) | 53.9 | 43.7 | 64.7 | 51.8 | 72.2 | – | 62.4 | 59.1 | – | – | – | – | – | – | – | – | – | – | –
O=C(COc1ccc(/C=C2\Oc3ccccc3C2=O)cc1)Nc1nc2ccccc2s1 | > 100 | > 100 | > 100 | > 100 | > 100 | – | > 100 | > 100 | 18.8 | 37.5 | > 84.8 | 28.9 | 10.5 | 24.2 | 5.59 | > 100 | 18.1 | 96.4 | 23.6
CC(=O)[CH-]C(=O)c1ccccc1.[C-]#[O+].[C-]#[O+].[Ir] | > 100 | > 100 | > 100 | – | > 100 | – | > 100 | > 10 | > 100 | > 100 | > 100 | – | > 100 | > 100 | – | – | – | – | > 10
O=C(NCCc1ccccc1)C1C(=O)C(=O)N(CCc2ccccc2)C1=O (stereo unspecified) | > 100 | > 100 | > 100 | > 100 | > 100 | > 100 | > 100 | > 100 | – | – | – | – | – | – | – | – | – | – | –
O=C(c1ccccc1)[C@H]1Nc2ccc(Cl)cc2[C@H]2CCC[C@@H]12 | 78 | 92.6 | > 100 | 57.9 | 92.5 | – | > 100 | 62.2 | – | – | – | – | – | – | – | – | – | – | –
